Calls of active or inactive are those of the source. No cut-off for these calls is given here.
Assays:
[1] = target: T1, Lethal factor (Bacillus anthracis) (UniProt P15917); assay: Protection against Bacillus anthracis lethal toxin-mediated cytotoxicity in mouse RAW264.7 cells assessed as change in viability at 0.125 to 12.5 uM relative to toxin-treated control; format: cell-based
T1 sequence (whole entry): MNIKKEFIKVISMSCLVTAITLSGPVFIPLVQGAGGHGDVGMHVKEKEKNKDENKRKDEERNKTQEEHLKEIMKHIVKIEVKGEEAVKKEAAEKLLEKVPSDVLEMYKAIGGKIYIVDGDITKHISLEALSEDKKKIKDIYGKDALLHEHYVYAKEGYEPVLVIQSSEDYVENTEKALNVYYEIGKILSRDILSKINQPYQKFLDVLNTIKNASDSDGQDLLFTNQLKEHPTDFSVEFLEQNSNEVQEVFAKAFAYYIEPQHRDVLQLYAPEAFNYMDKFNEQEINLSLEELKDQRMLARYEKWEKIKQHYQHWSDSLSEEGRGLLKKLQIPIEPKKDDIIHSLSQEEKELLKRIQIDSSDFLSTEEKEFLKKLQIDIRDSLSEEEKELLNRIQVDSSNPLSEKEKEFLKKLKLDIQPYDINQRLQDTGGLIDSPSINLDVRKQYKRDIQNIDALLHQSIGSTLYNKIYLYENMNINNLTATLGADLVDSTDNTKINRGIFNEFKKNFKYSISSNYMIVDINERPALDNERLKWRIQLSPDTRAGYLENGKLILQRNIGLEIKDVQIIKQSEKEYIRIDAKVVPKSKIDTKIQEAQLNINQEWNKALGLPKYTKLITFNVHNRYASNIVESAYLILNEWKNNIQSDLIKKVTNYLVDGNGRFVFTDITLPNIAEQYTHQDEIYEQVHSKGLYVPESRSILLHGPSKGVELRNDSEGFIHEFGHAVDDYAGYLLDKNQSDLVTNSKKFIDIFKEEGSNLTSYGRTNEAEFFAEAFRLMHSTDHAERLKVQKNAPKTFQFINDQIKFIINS

[2] = target: Diphtheria toxin (Corynebacterium diphtheriae) (UniProt Q5PY51); assay: Protection against diphtheria toxin-mediated cytotoxicity in CHOK1 cells assessed as cell viability after 48 hrs by WST1 dye reduction assay; format: cell-based; conditions: CHO-K1
Chain of Diphtheria toxin (Corynebacterium diphtheriae) (Q5PY51 as listed by the source): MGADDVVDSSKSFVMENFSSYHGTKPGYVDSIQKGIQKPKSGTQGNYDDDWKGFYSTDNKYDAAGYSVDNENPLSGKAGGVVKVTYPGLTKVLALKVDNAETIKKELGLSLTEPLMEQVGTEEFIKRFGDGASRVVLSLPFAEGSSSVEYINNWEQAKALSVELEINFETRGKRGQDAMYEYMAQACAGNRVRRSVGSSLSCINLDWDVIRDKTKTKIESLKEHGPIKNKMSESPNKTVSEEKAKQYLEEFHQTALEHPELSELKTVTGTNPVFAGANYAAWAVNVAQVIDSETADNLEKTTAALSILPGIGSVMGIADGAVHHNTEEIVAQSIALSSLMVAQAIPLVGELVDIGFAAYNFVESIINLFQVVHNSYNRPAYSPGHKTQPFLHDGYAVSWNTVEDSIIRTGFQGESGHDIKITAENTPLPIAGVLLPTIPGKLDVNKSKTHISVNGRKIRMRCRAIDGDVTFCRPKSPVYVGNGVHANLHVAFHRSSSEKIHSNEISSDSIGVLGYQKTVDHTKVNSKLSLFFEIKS

[3] = target: T2, Calmodulin-sensitive adenylate cyclase (Bacillus anthracis) (UniProt P40136); assay: Inhibition of Bacillus anthracis edema toxin-mediated intoxication in CHOK1 cells assessed as cAMP levels after 4 hrs by HTRF assay; format: cell-based; conditions: CHO-K1
T2 sequence (whole entry): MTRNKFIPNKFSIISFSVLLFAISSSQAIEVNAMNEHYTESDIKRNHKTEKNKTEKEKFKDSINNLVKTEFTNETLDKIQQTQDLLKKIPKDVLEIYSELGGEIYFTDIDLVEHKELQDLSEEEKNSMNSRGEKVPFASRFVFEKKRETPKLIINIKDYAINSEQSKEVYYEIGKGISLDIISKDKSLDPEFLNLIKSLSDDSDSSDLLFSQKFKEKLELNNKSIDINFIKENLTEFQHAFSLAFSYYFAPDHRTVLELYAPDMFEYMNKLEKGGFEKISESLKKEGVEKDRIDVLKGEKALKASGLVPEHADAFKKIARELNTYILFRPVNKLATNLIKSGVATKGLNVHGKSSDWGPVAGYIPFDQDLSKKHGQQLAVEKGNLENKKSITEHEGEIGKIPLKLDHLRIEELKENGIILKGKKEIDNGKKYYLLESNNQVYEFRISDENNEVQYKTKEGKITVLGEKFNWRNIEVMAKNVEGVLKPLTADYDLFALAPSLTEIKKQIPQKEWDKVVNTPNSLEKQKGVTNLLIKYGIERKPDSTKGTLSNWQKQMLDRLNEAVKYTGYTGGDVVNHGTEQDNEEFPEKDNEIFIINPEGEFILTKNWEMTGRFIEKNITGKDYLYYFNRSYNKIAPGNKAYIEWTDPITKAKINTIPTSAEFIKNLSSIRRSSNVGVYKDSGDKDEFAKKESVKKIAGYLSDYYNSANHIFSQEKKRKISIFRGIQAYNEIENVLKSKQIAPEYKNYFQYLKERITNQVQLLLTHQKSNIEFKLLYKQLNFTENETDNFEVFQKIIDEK

CHO-K1 = assay: Inhibition of cholera toxin-mediated intoxication in CHOK1 cells assessed as cAMP levels after 4 hrs by HTRF assay; format: cell-based; conditions: Vibrio cholerae
[4] = target: Protective antigen (Bacillus anthracis) (UniProt P13423); assay: Inhibition of Bacillus anthracis protective antigen binding to cell surface of mouse RAW264.7 cells at 12.5 uM after 2 hrs by flow cytometry; format: cell-based
Chain of Protective antigen (Bacillus anthracis) (P13423 whole entry): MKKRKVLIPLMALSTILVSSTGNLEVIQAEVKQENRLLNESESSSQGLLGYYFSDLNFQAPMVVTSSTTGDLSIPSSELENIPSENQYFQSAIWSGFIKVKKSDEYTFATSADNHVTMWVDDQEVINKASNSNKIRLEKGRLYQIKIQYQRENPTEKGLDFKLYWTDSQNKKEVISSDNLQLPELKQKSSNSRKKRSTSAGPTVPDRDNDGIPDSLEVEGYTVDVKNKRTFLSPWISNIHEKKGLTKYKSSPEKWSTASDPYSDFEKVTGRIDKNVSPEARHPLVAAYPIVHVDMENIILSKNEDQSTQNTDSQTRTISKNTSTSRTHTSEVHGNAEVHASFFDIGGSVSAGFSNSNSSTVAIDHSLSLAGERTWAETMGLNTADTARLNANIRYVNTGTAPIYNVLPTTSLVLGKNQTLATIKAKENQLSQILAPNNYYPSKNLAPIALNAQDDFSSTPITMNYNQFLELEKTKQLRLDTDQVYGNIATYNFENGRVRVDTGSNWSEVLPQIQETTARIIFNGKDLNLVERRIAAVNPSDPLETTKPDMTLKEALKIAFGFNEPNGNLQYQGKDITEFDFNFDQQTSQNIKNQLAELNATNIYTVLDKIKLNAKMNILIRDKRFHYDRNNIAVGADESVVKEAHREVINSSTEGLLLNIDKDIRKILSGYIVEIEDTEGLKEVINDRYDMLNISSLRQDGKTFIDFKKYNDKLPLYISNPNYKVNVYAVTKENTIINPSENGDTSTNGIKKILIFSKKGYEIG

[5] = target: Protective antigen (Bacillus anthracis) (UniProt P13423); assay: Inhibition of Bacillus anthracis protective antigen pore formation in mouse RAW264.7 cells at 12.5 uM after 2 hrs; format: cell-based
Rattus norvegicus [6] = assay: Protection against Bacillus anthracis lethal toxin-mediated intoxication in Fischer 344 rat assessed as time to death at 5.4 mg/kg administered through cannula; format: functional
Rattus norvegicus [7] = assay: Protection against Bacillus anthracis lethal toxin-mediated intoxication in Fischer 344 rat assessed as time to death at 54 mg/kg administered through cannula; format: functional
Rattus norvegicus [8] = assay: Toxicity in Bacillus anthracis lethal toxin-mediated intoxicated Fischer 344 rat assessed as adverse side effects administered through cannula; format: organism-based; conditions: in vivo, other
Serum = assay: Drug level in human serum; format: ADME, cell-free; conditions: read-out: Drug uptake
Plasmodium falciparum = assay: Antimalarial activity against Plasmodium falciparum; format: functional, organism-based

## O=c1[nH]c2cc(C(F)(F)F)ccc2n1-c1cc(C(F)(F)F)ccc1O
[1]
  fold change (FC): 2.8

## CC1(C)CCC(C)(C)c2cc(C(=O)Nc3ccc(C(=O)O)cc3)ccc21
[1]
  fold change (FC): 3.9

## CCCCc1oc2ccccc2c1C(=O)c1cc(I)c(OCCN(CC)CC)c(I)c1 [AMIODARONE]
[2]
  Activity: Active
[3]
  Activity: Active
CHO-K1
  Activity: inactive
[4]
  Activity: inactive
[5]
  Activity: Active
Rattus norvegicus [6]
  Activity: 64.8 min
Rattus norvegicus [7]
  Activity: 82.6 min
Rattus norvegicus [8]
  Activity: Non-toxic
Serum
  concentration: 3.75 µM

## CCCCCCCCCCCCCCCCOC[C@@H](COP(=O)([O-])OCC[N+](C)(C)C)OC(C)=O
[1]
  fold change (FC): 3.2

## N=C(NC(=O)c1nc(Cl)c(N)nc1N)Nc1ccccc1
[1]
  fold change (FC): 2.8

## C1CCC(/N=C(\NC23CC4CC(CC(C4)C2)C3)N2CCOCC2)CC1
[1]
  fold change (FC): 3.9

## CC1=C(/C=C/C(C)=C/C=C/C(C)=C/C(=O)O)C(C)(C)CCC1
[1]
  fold change (FC): 3

## COc1ccc(S(=O)(=O)N(CCO)c2ccccc2CN(C)C/C=C/c2ccc(Cl)cc2)cc1
[1]
  fold change (FC): 6.3

## CC1=C(/C=C/C(C)=C/C=C/C(C)=C\C(=O)O)C(C)(C)CCC1
[1]
  fold change (FC): 3.2

## CC1=C(/C=C/C(C)=C\C=C\C(C)=C\C(=O)O)C(C)(C)CCC1
[1]
  fold change (FC): 2.6

## N[C@@H](COP(=O)(O)O)C(=O)O
[1]
  fold change (FC): 2.8

## O=S(=O)(NCCNC/C=C/c1ccc(Br)cc1)c1cccc2cnccc12
[1]
  fold change (FC): 2.9

## CC1(C)Oc2ccc(C#N)cc2[C@@H](OC2=CC(=O)CC2)[C@@H]1O
[1]
  fold change (FC): 3

## CC(C)COCC(CN(Cc1ccccc1)c1ccccc1)N1CCCC1 (centres undefined) [BEPRIDIL]
[2]
  Activity: Active
[3]
  Activity: Active
CHO-K1
  Activity: inactive
[4]
  Activity: inactive
[5]
  Activity: Active
Serum
  concentration: 6.8 µM
Plasmodium falciparum
  IC50: 2500 nM

## CCCNCC(O)COc1ccccc1C(=O)CCc1ccccc1 (centres undefined)
[1]
  fold change (FC): 3.1

Source: ChEMBL document CHEMBL1157366 (Antimicrob Agents Chemother, 2007)
